# From patent US4122088A, “Dicarboxyphenyl substituted bis-sulfonylimino dibenzodithiazepine tetroxides” (American Cyanamid Company, priority 1977, dated 1978)
# Structures can show the parent of a compound that is named as a salt. Where two headings read alike, the source gives them in different places.
# Assays:
# [1] = test system: complement system; settings: literature reports; cited from earlier work
# [2] = test system: human C1; experiment: Test, Code 026 (C1 inhibitor): ability of activated human C1 to destroy fluid phase human C2 in the presence of C4; assay type: biochemical; settings: serial dilution assay, two-fold dilutions; higher well number indicates higher activity
# Source text: (§1) An active inhibitor protects C2 from C1 and C4; (ii) Test, Code 035 (C3-C9 inhibitor) - This test determines the ability of the late components of human complement (C3-C9) to lyse EAC 142 in the presence of appropriate dilutions of the test compound. An active inhibitor protects EAC 142 from lysis by human C3-C9; (iii) Test, Code 036 (C-Shunt inhibitor) - In this test human erythrocytes rendered fragile are lysed in autologous serum via the shunt pathway activated by cobra venom factor in the presence of appropriate dilutions of the test compound. Inhibition of the shunt pathway results in failure of lysis; (iv) Forssman Vasculitis Test -- Here, the well known complement dependent lesion, Forssman vasculitis, is produced in guinea pigs by intradermal injection of rabbit anti-Forssman antiserum. […]
# [3] = test system: whole complement; experiment: Complement Level Reduction Test: whole complement in serum of dosed guinea pigs, capillary tube assay; assay type: in vivo; settings: Cavia porcellus, ip, guinea pig, i.p., versus simultaneous controls
# Source text: An active inhibitor protects C2 from C1 and C4; (ii) Test, Code 035 (C3-C9 inhibitor) - This test determines the ability of the late components of human complement (C3-C9) to lyse EAC 142 in the presence of appropriate dilutions of the test compound. An active inhibitor protects EAC 142 from lysis by human C3-C9; (iii) Test, Code 036 (C-Shunt inhibitor) - In this test human erythrocytes rendered fragile are lysed in autologous serum via the shunt pathway activated by cobra venom factor in the presence of appropriate dilutions of the test compound. Inhibition of the shunt pathway results in failure of lysis; (iv) Forssman Vasculitis Test -- Here, the well known complement dependent lesion, Forssman vasculitis, is produced in guinea pigs by intradermal injection of rabbit anti-Forssman antiserum. The lesion is measured in terms of diameter, edema and hemorrhage and the extent to which a combined index of these is inhibited by prior intraperitoneal injection of the test compound at 200 mg/kg is then reported, unless otherwise stated; (v) Forssman Shock Test -- Lethal shock is produced in guinea pigs by an i.v. injection of anti-Forssman antiserum and the harmonic mean death time of treated guinea pigs is compared with that of simultaneous controls; (vi) Complement Level Reduction Test - In this test, the above dosed guinea pigs, or others, are bled for serum and the complement level is determined in undiluted serum by the capillary t3be method of U.S. Pat. No. 3,876,376 and compared to undosed control guinea pigs; and (vii) Cap 50 Test -- Here, appropriate amounts of the test compound are added to a pool of guinea pig serum in vitro, after which the undiluted serum capillary tube assay referred to above is run. The concentration of compound inhibiting 50% is reported.
# With reference to Table I, guinea pigs weighing about 300 g were dosed intravenously (i.v.) or intraperitoneally (i.p.) with 200 mg/kg of the test compound dissolved in saline and adjusted to pH 7-8. […] Percent inhibition was calculated by comparison with simultaneous controls. […]
# [4] = test system: shunt pathway; experiment: Test, Code 036 (C-Shunt inhibitor): lysis of human erythrocytes in autologous serum via the shunt pathway activated by cobra venom factor; assay type: cell-based; settings: serial dilution assay, two-fold dilutions; higher well number indicates higher activity
# Source text: as §1
# [5] = test system: late components of human complement (C3-C9); experiment: Test, Code 035 (C3-C9 inhibitor): lysis of EAC 142 by late components of human complement; assay type: cell-based; design: key: Negative; settings: serial dilution assay, two-fold dilutions; higher well number indicates higher activity
# Source text: as §1
# [6] = New England Journal of Medicine, 286, 808-812 (1972); cited from earlier work
compound,measurement,setting,value
"Nc1ccc2cc(S(=O)(=O)O)cc(O)c2c1N=Nc1ccc(NC(=O)Nc2ccc(N=Nc3c(N)ccc4cc(S(=O)(=O)O)cc(O)c34)c(S(=O)(=O)O)c2)cc1S(=O)(=O)O [chlorazol fast pink, 3,3'-ureylenebis-[6-(2-amino-8-hydroxy-6-sulfo-1-naphthylazo)] benzenesulfonic acid, tetrasodium salt]",anticomplementary effect / inhibition of the complement system,[1],anticomplementary effect
"O=C(O)c1cc(NS(=O)(=O)c2ccc3c(c2)S(=O)(=O)N(c2cc(C(=O)O)cc(C(=O)O)c2)S(=O)(=O)c2cc(S(=O)(=O)Nc4cc(C(=O)O)cc(C(=O)O)c4)ccc2-3)cc(C(=O)O)c1 [5,5'-{[6-(3,5-Dicarboxyphenyl)dibenzo[d,f][1,3,2]-dithiazepine-3,9-diyl]bis(sulfonylimino)}diisophthalic acid hexasodium salt S,S,S',S'-tetroxide]",C1 026* Wells,[2],+5 Wells
same,inhibition at 200 mg/kg,"[3]; 0.5 h, 30 min, read-out: In Vivo Activity (Guinea Pig) % Inhibition, Intraperitoneal, 30 minutes",-23%
same,inhibition at 200 mg/kg,"[3]; 1 h, 60 min, read-out: In Vivo Activity (Guinea Pig) % Inhibition, Intraperitoneal, 60 minutes",-57%
same,inhibition at 200 mg/kg,"[3]; 2 h, 120 min, read-out: In Vivo Activity (Guinea Pig) % Inhibition, Intraperitoneal, 120 minutes",-42%
same,Shunt Inhibition 036* Wells,[4],+3 Wells
same,C-Late 035* Wells,[5],N
NC[C@H]1CC[C@H](C(=O)O)CC1 [tranexamic acid],use in the treatment of hereditary angioneurotic edema,[6],used with success
NCCCCCC(=O)O [epsilon-aminocaproic acid],use in the treatment of hereditary angioneurotic edema,[6],used with success
Cc1ccc(C(=O)Nc2ccc(S(=O)(=O)O)c3cc(S(=O)(=O)O)cc(S(=O)(=O)O)c23)cc1NC(=O)c1cccc(NC(=O)Nc2cccc(C(=O)Nc3cc(C(=O)Nc4ccc(S(=O)(=O)O)c5cc(S(=O)(=O)O)cc(S(=O)(=O)O)c45)ccc3C)c2)c1 [Suramin],anticomplementary effect / inhibition of the complement system,[1],competitive inhibitor of the complement system
heparin,anticomplementary effect / inhibition of the complement system,[1],anticomplementary effect
